Measured values taken from patent publication US9452990B2, “Complement pathway modulators and uses thereof” (NOVARTIS AG, priority 2012, dated 2016).
Structures can show the parent of a compound that is named as a salt.

These molecules were tested against human complement factor B (CVF-Bb complex) (Homo sapiens (Human), UniProt P00751) (assay: Human Complement Factor B ELISA Assay). Conditions: not given.
Type: biochemical
Method in brief: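 Preformed CVF-Bb complex (3 nM; cobra venom factor with recombinant human factors B and D) preincubated with compound 1 h, RT, in PBS pH 7.4, 10 mM MgCl2, 0.05% CHAPS. Plasma C3 added at 1 μM final for 1 h, then stopped; C3a product measured by ELISA, IC50 from % inhibition.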

`COc1cc2c(N)nc(N3CCN(C(=O)C[C@@H]4CCN4)C[C@@H]3c3ccccc3)nc2c(F)c1OC` [Example 119, 1-[(S)-4-(4-Amino-8-fluoro-6,7-dimethoxy-quinazolin-2-yl)-3-phenyl-piperazin-1-yl]-2-(S)-azetidin-2-yl-ethanone hydrochloride] was tested. Which IC50 did it give?
The IC50 was 610 nM.

For `CC[C@H]1CN(C(=O)C[C@@H](N)c2ccc(C(F)(F)F)cc2)CCN1c1nc(N)c2cc(OC)c(OC)c(F)c2n1` [Example 66, (R)-3-Amino-1-[(S)-4-(4-amino-8-fluoro-6,7-dimethoxy-quinazolin-2-yl)-3-ethyl-piperazin-1-yl]-3-(4-trifluoromethyl-phenyl)-propan-1-one hydrochloride], which IC50 is on record?
The IC50 was 90 nM.

With `COc1cc2c(N)nc(N3CCN(C(=O)C[C@@H](N)c4ccc(C(F)(F)F)cc4)C[C@@H]3C)nc2c(F)c1OC` [Example 61, (R)-3-Amino-1-[(S)-4-(4-amino-8-fluoro-6,7-dimethoxy-quinazolin-2-yl)-3-methyl-piperazin-1-yl]-3-(4-trifluoromethyl-phenyl)-propan-1-one hydrochloride] as the molecule, how does the IC50 read?
Its IC50 is 40 nM.

`COc1cc2c(N)nc(N3CCN(C(=O)C[C@@H](N)c4ccccc4)C[C@@H]3C)nc2c(F)c1OC` [Example 57, (R)-3-Amino-1-[(S)-4-(4-amino-8-fluoro-6,7-dimethoxy-quinazolin-2-yl)-3-methyl-piperazin-1-yl]-3-phenyl-propan-1-one hydrochloride] was tested. Which IC50 did it give?
Its IC50 is 210 nM.

For `COc1cc2c(N)nc(N3CCN(C(=O)C[C@@H](N)c4ccc(C#N)cc4)C[C@@H]3C)nc2c(F)c1OC` [Example 58, 4-{(R)-1-Amino-3-[(S)-4-(4-amino-8-fluoro-6,7-dimethoxy-quinazolin-2-yl)-3-methyl-piperazin-1-yl]-3-oxo-propyl}-benzonitrile hydrochloride], which IC50 is on record?
Its IC50 is 9 nM.

Which IC50 does the source give for `COc1cc2c(N)nc(N3CCN(C(=O)C[C@@H](N)c4ccccc4F)C[C@@H]3C)nc2c(F)c1OC` [Example 59, (R)-3-Amino-1-[(S)-4-(4-amino-8-fluoro-6,7-dimethoxy-quinazolin-2-yl)-3-methyl-piperazin-1-yl]-3-(2-fluoro-phenyl)-propan-1-one hydrochloride] here?
Its IC50 is 160 nM.

With `COc1cc2c(N)nc(N3CCN(C(=O)C[C@@H](N)c4ccc(Cl)cc4)CC3)nc2c(F)c1OC` [Example 48, (R)-3-Amino-1-[4-(4-amino-8-fluoro-6,7-dimethoxy-quinazolin-2-yl)-piperazin-1-yl]-3-(4-chloro-phenyl)-propan-1-one hydrochloride] as the molecule, how does the IC50 read?
The IC50 was 90 nM.

Same assay, conditions: CVF-Bb complex 3 nM, 1 hour preincubation with compound at room temperature, human C3 substrate 1 μM, C3a quantified by ELISA; read-out: Factor B IC50

How did the IC50 turn out when `COc1cc2c(N)nc(N3CCN(C(=O)/C=C/c4ccc(F)cc4)CC3)nc2c(Cl)c1OC` [Example 16, (E)-1-(4-(4-Amino-8-chloro-6,7-dimethoxyquinazolin-2-yl)piperazin-1-yl)-3-(4-fluorophenyl)prop-2-en-1-one] was run?
Its IC50 is 1440 nM.

`COc1cc2c(N)nc(N3CCN(C(=O)/C=C/c4ccc(C#N)cc4)C[C@@H]3c3ccccc3)nc2c(F)c1OC` [Example 10, 4-{(E)-3-[(S)-4-(4-Amino-8-fluoro-6,7-dimethoxy-quinazolin-2-yl)-3-phenyl-piperazin-1-yl]-3-oxo-propenyl}-benzonitrile] was tested. Which IC50 did it give?
The IC50 was 6 nM.

With `COc1cc2c(N)nc(N3CCN(C(=O)c4cc5cc(C#N)ccc5[nH]4)C[C@@H]3C)nc2c(F)c1OC` [Example 23, 2-[(S)-4-(4-Amino-8-fluoro-6,7-dimethoxy-quinazolin-2-yl)-3-methyl-piperazine-1-carbonyl]-1H-indole-5-carbonitrile] as the molecule, how does the IC50 read?
The IC50 was 15 nM.

Which IC50 does the source give for `COc1cc2c(N)nc(N3CCN(C(=O)/C=C/C4CC4)CC3)nc2c(Cl)c1OC` [Example 13, (E)-1-(4-(4-Amino-8-chloro-6,7-dimethoxyquinazolin-2-yl)piperazin-1-yl)-3-cyclopropylprop-2-en-1-one] here?
The IC50 was 1050 nM.

With `CCN[C@H](CC(=O)N1CCN(c2nc(N)c3cc(OC)c(OC)c(F)c3n2)CC1)c1ccc(F)cc1` [Example 84, (R)-1-[4-(4-Amino-8-fluoro-6,7-dimethoxy-quinazolin-2-yl)-piperazin-1-yl]-3-ethylamino-3-(4-fluoro-phenyl)-propan-1-one] as the molecule, how does the IC50 read?
Its IC50 is 6 nM.

Which IC50 does the source give for `COc1cc2c(N)nc(N3CCN(C(=O)C[C@@H](N)c4ccc(C)cc4)CC3)nc2c(F)c1OC` [Example 41, (R)-3-Amino-1-[4-(4-amino-8-fluoro-6,7-dimethoxy-quinazolin-2-yl)-piperazin-1-yl]-3-p-tolyl-propan-1-one] here?
The IC50 was 70 nM.

Which IC50 does the source give for `COc1cc2nc(N3CCN(C(=O)C[C@@H](N)c4ccc(F)cc4)CC3)nc(N)c2c(F)c1OC` [Example 83, (R)-3-Amino-1-[4-(4-amino-5-fluoro-6,7-dimethoxy-quinazolin-2-yl)-piperazin-1-yl]-3-(4-fluoro-phenyl)-propan-1-one] here?
The IC50 was 30 nM.

How did the IC50 turn out when `COCCOc1c(OC)cc2c(N)nc(N3CCN(C(=O)C[C@@H]4CCCN4)CC3)nc2c1F` [Example 124, 1-{4-[4-Amino-8-fluoro-6-methoxy-7-(2-methoxy-ethoxy)-quinazolin-2-yl]-piperazin-1-yl}-2-(S)-pyrrolidin-2-yl-ethanone] was run?
Its IC50 is 5950 nM.

For `COc1cc2c(N)nc(N3CCN(C(=O)C[C@@H](C(N)=O)c4ccc(F)cc4)CC3)nc2c(F)c1OC` [Example 130, (R)-4-[4-(4-Amino-8-fluoro-6,7-dimethoxy-quinazolin-2-yl)-piperazin-1-yl]-2-(4-fluoro-phenyl)-4-oxo-butyramide], which IC50 is on record?
Its IC50 is 10 nM.

`COc1cc2c(N)nc(N3CCN(C(=O)CC4CNCCO4)C[C@@H]3c3ccccc3)nc2c(F)c1OC` (stereo partly drawn) [Example 123, 1-[(S)-4-(4-Amino-8-fluoro-6,7-dimethoxy-quinazolin-2-yl)-3-phenyl-piperazin-1-yl]-2-morpholin-2-yl-ethanone] was tested. Which IC50 did it give?
The IC50 was 890 nM.

How did the IC50 turn out when `CN[C@H](CC(=O)N1CCN(c2nc(N)c3cc(OC)c(OC)c(F)c3n2)CC1)c1ccc(C#N)cc1` [Example 77, (R)-4-(3-(4-(4-amino-8-fluoro-6,7-dimethoxyquinazolin-2-yl)piperazin-1-yl)-1-(methylamino)-3-oxopropyl)benzonitrile] was run?
The IC50 was 4 nM.

Which IC50 does the source give for `[2H]C([2H])([2H])N[C@H](CC(=O)N1CCN(c2nc(N)c3cc(OC)c(OC)c(F)c3n2)CC1)c1ccccc1` [Example 79, (R)-1-[4-(4-Amino-8-fluoro-6,7-dimethoxy-quinazolin-2-yl)-piperazin-1-yl]-3-d^3-methylamino-3-phenyl-propan-1-one hydrochloride] here?
The IC50 was 50 nM.

`COc1cc2c(N)nc(N3CCN(C(=O)C[C@@H]4CCCN4CC(C)C)CC3)nc2c(F)c1OC` [Example 108, (S)-1-(4-(4-amino-8-fluoro-6,7-dimethoxyquinazolin-2-yl)piperazin-1-yl)-2-(1-isobutylpyrrolidin-2-yl)ethanone] was tested. Which IC50 did it give?
The IC50 was 170 nM.

For `COc1cc2c(N)nc(N3CCN(C(=O)C[C@@H]4CCN4)CC3)nc2c(F)c1OC` [Example 109, 1-[4-(4-Amino-8-fluoro-6,7-dimethoxy-quinazolin-2-yl)-piperazin-1-yl]-2-(S)-azetidin-2-yl-ethanone], which IC50 is on record?
Its IC50 is 4270 nM.

How did the IC50 turn out when `COc1cc2c(N)nc(N3CCN(C(=O)C[C@@H]4CC[C@H](c5ccccc5)N4)CC3)nc2c(F)c1OC` [Example 111, 1-[4-(4-Amino-8-fluoro-6,7-dimethoxy-quinazolin-2-yl)-piperazin-1-yl]-2-((2S,5R)-5-phenyl-pyrrolidin-2-yl)-ethanone] was run?
Its IC50 is 380 nM.

For `COc1cc2c(N)nc(N3CCN(C(=O)C[C@H]4NCCc5ccccc54)CC3)nc2c(F)c1OC` [Example 127, 1-[4-(4-Amino-8-fluoro-6,7-dimethoxy-quinazolin-2-yl)-piperazin-1-yl]-2-(R)-1,2,3,4-tetrahydro-isoquinolin-1-yl-ethanone], which IC50 is on record?
The IC50 was 200 nM.

How did the IC50 turn out when `COc1cc2c(N)nc(N3C[C@@H](C)N(C(=O)C[C@@H](N)c4ccc(F)cc4)C[C@@H]3C)nc2c(F)c1OC` [Example 74, (R)-3-amino-1-[(2R,5S)-4-(4-amino-8-fluoro-6,7-dimethoxy-quinazolin-2-yl)-2,5-dimethyl-piperazin-1-yl]-3-(4-fluorophenyl)-propan-1-one] was run?
The IC50 was 50 nM.

With `COc1cc2c(N)nc(N3CCN(C(=O)C[C@@H](NC(C)C)c4ccc(F)cn4)CC3)nc2c(F)c1OC` [Example 101, (R)-1-[4-(4-Amino-8-fluoro-6,7-dimethoxy-quinazolin-2-yl)-piperazin-1-yl]-3-(5-fluoro-pyridin-2-yl)-3-isopropylamino-propan-1-one] as the molecule, how does the IC50 read?
Its IC50 is 13 nM.

With `COc1cc2c(N)nc(N3CCN(C(=O)C[C@@H](N)c4ccsc4)CC3)nc2c(F)c1OC` [Example 37, (R)-3-Amino-1-[4-(4-amino-8-fluoro-6,7-dimethoxy-quinazolin-2-yl)-piperazin-1-yl]-3-thiophen-3-yl-propan-1-one] as the molecule, how does the IC50 read?
The IC50 was 40 nM.

How did the IC50 turn out when `COc1cc2c(N)nc(N3CCN(C(=O)C[C@@H]4CCCN4)CC3)nc2c(F)c1OC` [Example 110, 1-[4-(4-Amino-8-fluoro-6,7-dimethoxy-quinazolin-2-yl)-piperazin-1-yl]-2-(S)-pyrrolidin-2-yl-ethanone] was run?
Its IC50 is 140 nM.

Which IC50 does the source give for `COc1cc2c(N)nc(N3CCN(C(=O)/C=C/C4CC4)CC3)nc2c(Br)c1OC` [Example 15, (E)-1-(4-(4-Amino-8-bromo-6,7-dimethoxyquinazolin-2-yl)piperazin-1-yl)-3-cyclopropylprop-2-en-1-one] here?
Its IC50 is 1280 nM.

How did the IC50 turn out when `COc1cc2c(N)nc(N3CCN(C(=O)C[C@@H](N)c4cccc(F)c4)CC3)nc2c(F)c1OC` [Example 45, (R)-3-Amino-1-[4-(4-amino-8-fluoro-6,7-dimethoxy-quinazolin-2-yl)-piperazin-1-yl]-3-(3-fluoro-phenyl)-propan-1-one] was run?
Its IC50 is 50 nM.

How did the IC50 turn out when `COCCN[C@H](CC(=O)N1CCN(c2nc(N)c3cc(OC)c(OC)c(F)c3n2)CC1)c1ccc(F)cc1` [Example 100, (R)-1-[4-(4-Amino-8-fluoro-6,7-dimethoxy-quinazolin-2-yl)-piperazin-1-yl]-3-(4-fluoro-phenyl)-3-(2-methoxy-ethylamino)-propan-1-one] was run?
Its IC50 is 20 nM.
